# In patent publication US20100311714A1, “1H-IMIDAZO[4,5-c]QUINOLINONE COMPOUNDS” (priority 2009, published 2010):
# Read-outs that look alike come from different tables or passages of the source.
# How the values were obtained:
# [1] = High-throughput equilibrium solubility at pH 6.8; format: physicochemical; conditions: pH 6.8, aqueous buffer, thermodynamic from solid; read-out: HT-Eq Sol/pH 6.8
# Method in brief: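 Solubility was measured at pH 6.8 following the cited Zhou et al. (2007) procedure.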
# [2] = biological target: T1, PI3K beta (Homo sapiens, UniProt P42338); experiment: PI3K beta kinase assay (Kinase-Glo luminescence); format: biochemical
# T1 construct: for the full-length p110-b subunit are generated and fused by overlapping PCR; His tag (C); made in house; host or cells: baculovirus BV949; Tn5 (Trichoplusia ni) or TiniPro insect cells
# Experimental: In a more preferred assay, the kinase reaction is performed in a final volume of 10 μL per well of a low volume non binding CORNING, 384 well black plate (Cat. No. #3676). The final concentrations of ATP and phosphatidyl inositol (PI) in the assay are 1 μM and 10 μg/mL respectively. The reaction is started by the addition of ATP.
# The components of the assay are added per well as follows:
# 50 nL test compounds in 90% DMSO per well, in columns 1-20, 8 concentrations (⅓ and 1/3.33 serial dilution step) in single. • Low control: […] of 90% DMSO in half the wells of columns 23-24 (0.45% in final). • High control: 50 nL of reference compound (e.g. compound of Example 7 in WO 2006/122806) in the other half of columns 23-24 (2.5 μM in final). • Standard: 50 nL of reference compound as just mentioned diluted as the test compounds in columns 21-22 • 20 mL ‘buffer’ are prepared per assay: • 200 μL of 1M TRIS HCl pH7.5 (10 mM in final) • 60 μL of 1M MgCl2 (3 mM in final) • 500 μL of 2M NaCl (50 mM in final) • 100 μL of 10% CHAPS (0.05% in final) • 200 μL of 100 mM DTT (1 mM in final) • 18.94 mL of nanopure water • 10 mL ‘PI’ are prepared per assay: • 200 μL of 1 mg/ml L-alpha-Phosphatidylinositol (Liver Bovine, Avanti Polar Lipids Cat. No. 840042C MW=909.12) prepared in 3% OctylGlucoside (10 μg/ml in final) • 9.8 mL of ‘buffer’ • 10 mL ‘ATP’ are prepared per assay: • 6.7 μL of 3 mM stock of ATP giving a final concentration of 1 μM per well • 10 mL of ‘buffer’ • 2.5 mL of each PI3K construct are prepared per assay in ‘PI’ with the following final concentration: • 10 nM PI3K alfa EMV B1075 • 25 nM beta EMV BV949 • 10 nM delta EMV BV1060 • 150 nM gamma EMV BV950 • 5 μL of ‘PI/PI3K’ are added per well. • 5 μl ‘ATP’ are added per well to start the reaction. • The plates are then incubated at room temperature for 60 minutes (alfa, beta, delta) or 120 minutes (gamma). • The reaction is terminated by the addition of 10 μL Kinase-Glo (Promega Cat. No. #6714). • The assay plates are read after 10 minutes in Synergy 2 reader (BioTek, Vermont USA) with an integration time of 100 milliseconds and sensitivity set to 191. • Output: The High control is around 60′000 counts and the Low control is 30′000 or lower • This luminescence assay gives a useful Z′ ratio between 0.4 and 0.7
# PI3Kβ BV-949 p85(iSH2)-Gly linker-r 110b(full-length)-C-term His Tag
# PI3K beta is purified in two chromatographic steps: immobilized metal affinity chromatography (IMAC) on a Ni Sepharose resin (GE Healthcare) and gel filtration (GFC) utilizing a Superdex 200 26/60 column (GE Healthcare). All buffers are chilled to 4° C. and lysis is performed chilled on ice. Column fractionation is performed rapidly at room temperature.
# IC50 is determined by a four parameter curve fitting routine that comes along with “excel fit”. A 4 Parameter logistic equation is used to calculate IC50 values (IDBS XLfit) of the percentage inhibition of each compound at 8 concentrations (usually 10, 3.0, 1.0, 0.3, 0.1, 0.030, 0.010 and 0.003 μM). Alternatively, IC50 values are calculated using idbsXLfit model 204, which is a 4 parameter logistic model.
# T1 sequence (P42338 with tags, fused parts or gaps limits assumed): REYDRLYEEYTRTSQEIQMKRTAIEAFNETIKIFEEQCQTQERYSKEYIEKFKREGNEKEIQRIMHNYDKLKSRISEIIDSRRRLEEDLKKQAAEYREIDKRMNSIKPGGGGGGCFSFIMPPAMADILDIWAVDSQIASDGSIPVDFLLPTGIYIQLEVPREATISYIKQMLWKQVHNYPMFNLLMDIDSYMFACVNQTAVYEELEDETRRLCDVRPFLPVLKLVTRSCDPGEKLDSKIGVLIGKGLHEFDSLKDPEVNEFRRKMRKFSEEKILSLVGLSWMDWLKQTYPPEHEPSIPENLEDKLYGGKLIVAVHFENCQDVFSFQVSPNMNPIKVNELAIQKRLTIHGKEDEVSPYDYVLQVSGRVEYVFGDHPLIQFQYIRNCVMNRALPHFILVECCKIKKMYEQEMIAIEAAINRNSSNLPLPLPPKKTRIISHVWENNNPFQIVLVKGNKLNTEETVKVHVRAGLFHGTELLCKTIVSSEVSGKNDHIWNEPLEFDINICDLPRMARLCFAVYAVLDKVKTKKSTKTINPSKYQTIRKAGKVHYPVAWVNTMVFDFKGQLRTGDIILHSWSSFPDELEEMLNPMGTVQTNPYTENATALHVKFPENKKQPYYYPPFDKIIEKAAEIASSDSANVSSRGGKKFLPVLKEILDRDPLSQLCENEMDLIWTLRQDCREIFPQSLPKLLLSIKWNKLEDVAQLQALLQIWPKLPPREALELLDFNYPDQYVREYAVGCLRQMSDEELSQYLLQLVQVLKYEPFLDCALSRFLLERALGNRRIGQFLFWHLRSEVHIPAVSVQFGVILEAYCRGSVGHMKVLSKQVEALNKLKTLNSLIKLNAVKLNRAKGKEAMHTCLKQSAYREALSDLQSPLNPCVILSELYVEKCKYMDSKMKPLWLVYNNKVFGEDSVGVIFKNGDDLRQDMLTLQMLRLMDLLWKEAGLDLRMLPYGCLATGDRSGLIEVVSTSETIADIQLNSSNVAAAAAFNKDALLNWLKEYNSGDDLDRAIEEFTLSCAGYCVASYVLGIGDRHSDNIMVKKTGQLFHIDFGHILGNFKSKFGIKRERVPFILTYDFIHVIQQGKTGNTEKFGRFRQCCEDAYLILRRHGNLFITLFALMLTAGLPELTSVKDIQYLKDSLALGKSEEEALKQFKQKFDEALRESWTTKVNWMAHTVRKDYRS
solubility thermodynamic [1] [µg/mL],IC50 ([2]; read-out: EPK_PI3Kbeta/IC50) [nM],IC50 ([2]; read-out: PI3Kbeta/IC50) [nM],SMILES
172,454,–,"CCNc1ncc(-c2ccc3ncc4c(c3c2)n(-c2ccc(N3CC[C@@H](O)C3)nc2C)c(=O)n4C)cc1COCC [Example 34.4, 8-(5-Ethoxymethyl-6-ethylamino-pyridin-3-yl)-1-[6-((R)-3-hydroxy-pyrrolidin-1-yl)-2-methyl-pyridin-3-yl]-3-methyl-1,3-dihydro-imidazo[4,5-c]quinolin-2-one]"
6,–,7,"Cn1c(=O)n(-c2cccnc2F)c2c3cc(-c4cnc(N)c(C(F)(F)F)c4)ccc3ncc21 [Example 6.2, 8-(6-Amino-5-trifluoromethyl-pyridin-3-yl)-1-(2-fluoro-pyridin-3-yl)-3-methyl-1,3-dihydro-imidazo[4,5-c]quinolin-2-one]"
129,–,601,"COc1ccc(-c2ccc3ncc4c(c3c2)n(-c2cnccc2C)c(=O)n4C)cn1 [Example 4.3, 8-(6-Methoxy-pyridin-3-yl)-3-methyl-1-(4-methyl-pyridin-3-yl)-1,3-dihydro-imidazo[4,5-c]quinolin-2-one]"
12,–,109,"Cc1cccnc1-n1c(=O)n(C)c2cnc3ccc(-c4cnc(N)c(C(F)(F)F)c4)cc3c21 [Example 3.12, 8-(6-Amino-5-trifluoromethyl-pyridin-3-yl)-3-methyl-1-(3-methyl-pyridin-2-yl)-1,3-dihydro-imidazo[4,5-c]quinolin-2-one]"
56,–,226,"CNc1ccc(-c2ccc3ncc4c(c3c2)n(-c2cccnc2C)c(=O)n4C)cn1 [Example 2.13, 3-Methyl-8-(6-methylamino-pyridin-3-yl)-1-(2-methyl-pyridin-3-yl)-1,3-dihydro-imidazo[4,5-c]quinolin-2-one]"
423,69,–,"Cc1nc(C(F)(F)F)ccc1-n1c(=O)n(C)c2cnc3ccc(-c4cncc(C(C)(C)O)c4)cc3c21 [Example 33.1, 8-[5-(1-Hydroxy-1-methyl-ethyl)-pyridin-3-yl]-3-methyl-1-(2-methyl-6-trifluoromethyl-pyridin-3-yl)-1,3-dihydro-imidazo[4,5-c]quinolin-2-one]"
56,301,–,"CNc1ncc(-c2ccc3ncc4c(c3c2)n(-c2ccc(N3CC(O)C3)nc2C)c(=O)n4C)cc1F [Example 29.3, 8-(5-Fluoro-6-methylamino-pyridin-3-yl)-1-[6-(3-hydroxy-azetidin-1-yl)-2-methyl-pyridin-3-yl]-3-methyl-1,3-dihydro-imidazo[4,5-c]quinolin-2-one]"
14,625,–,"CCNc1ncc(-c2ccc3ncc4c(c3c2)n(-c2ccc(C(C)(C)O)nc2C)c(=O)n4C)cn1 [Example 31.7, 8-(2-Ethylamino-pyrimidin-5-yl)-1-[6-(1-hydroxy-1-methyl-ethyl)-2-methyl-pyridin-3-yl]-3-methyl-1,3-dihydro-imidazo[4,5-c]quinolin-2-one]"
264,193,–,"COCc1ncc(-c2ccc3ncc4c(c3c2)n(-c2ccc(N3CCC3)nc2C)c(=O)n4C)cc1OC(C)C [Example 23.2, 1-(6-Azetidin-1-yl-2-methyl-pyridin-3-yl)-8-(5-isopropoxy-6-methoxymethyl-pyridin-3-yl)-3-methyl-1,3-dihydro-imidazo[4,5-c]quinolin-2-one]"
64,103,–,"CNc1ncc(-c2ccc3ncc4c(c3c2)n(-c2ccc(N3CC[C@H](O)C3)nc2C)c(=O)n4C)cn1 [Example 32.1, 1-[6-((S)-3-Hydroxy-pyrrolidin-1-yl)-2-methyl-pyridin-3-yl]-3-methyl-8-(2-methylamino-pyrimidin-5-yl)-1,3-dihydro-imidazo[4,5-c]quinolin-2-one]"
256,277,–,"COc1cc(-c2ccc3ncc4c(c3c2)n(-c2ccc(N3CC(O)C3)nc2C)c(=O)n4C)cnc1CO [Example 29.5, 1-[6-(3-Hydroxy-azetidin-1-yl)-2-methyl-pyridin-3-yl]-8-(6-hydroxymethyl-5-methoxy-pyridin-3-yl)-3-methyl-1,3-dihydro-imidazo[4,5-c]quinolin-2-one]"
99,< 3,–,"Cc1nc(N2CCCC2)ccc1-n1c(=O)n(C)c2cnc3ccc(-c4cncc(C(C)(C)O)c4)cc3c21 [Example 25.3, 8-[5-(1-Hydroxy-1-methyl-ethyl)-pyridin-3-yl]-3-methyl-1-(2-methyl-6-pyrrolidin-1-yl-pyridin-3-yl)-1,3-dihydro-imidazo[4,5-c]quinolin-2-one]"
67,124,–,"CNc1ncc(-c2ccc3ncc4c(c3c2)n(-c2ccc(N3CCC(O)C3)nc2C)c(=O)n4C)cn1 (centres unmarked) [Example 27.2, 1-[6-(3-Hydroxy-pyrrolidin-1-yl)-2-methyl-pyridin-3-yl]-3-methyl-8-(2-methylamino-pyrimidin-5-yl)-1,3-dihydro-imidazo[4,5-c]quinolin-2-one]"
22,1160,–,"Cc1nc(N2CCC2)ccc1-n1c(=O)n(C)c2cnc3ccc(-c4cncc(N5CCC5)c4)cc3c21 [Example 23.1, 1-(6-Azetidin-1-yl-2-methyl-pyridin-3-yl)-8-(5-azetidin-1-yl-pyridin-3-yl)-3-methyl-1,3-dihydro-imidazo[4,5-c]quinolin-2-one]"
23,99,–,"CNc1ncc(-c2ccc3ncc4c(c3c2)n(-c2ccc(N(C)CCO)nc2C)c(=O)n4C)cn1 [Example 26.2, 1-{6-[(2-Hydroxy-ethyl)-methyl-amino]-2-methyl-pyridin-3-yl}-3-methyl-8-(2-methylamino-pyrimidin-5-yl)-1,3-dihydro-imidazo[4,5-c]quinolin-2-one]"
17,–,133,"Cc1ncccc1-n1c(=O)n(C)c2cnc3ccc(-c4ccc(N)nc4)cc3c21 [Example 2.7, 8-(6-Amino-pyridin-3-yl)-3-methyl-1-(2-methyl-pyridin-3-yl)-1,3-dihydro-imidazo[4,5-c]quinolin-2-one]"
21,353,–,"COCc1ncc(-c2ccc3ncc4c(c3c2)n(-c2ccc(N3CCC3)nc2C)c(=O)n4C)cc1OC [Example 23.6, 1-(6-Azetidin-1-yl-2-methyl-pyridin-3-yl)-8-(5-methoxy-6-methoxymethyl-pyridin-3-yl)-3-methyl-1,3-dihydro-imidazo[4,5-c]quinolin-2-one]"
51,563,–,"CCOc1cc(-c2ccc3ncc4c(c3c2)n(-c2cccnc2C)c(=O)n4C)cnc1COC [Example 2.28, 8-(5-Ethoxy-6-methoxymethyl-pyridin-3-yl)-3-methyl-1-(2-methyl-pyridin-3-yl)-1,3-dihydro-imidazo[4,5-c]quinolin-2-one]"
372,45,–,"Cc1nc(F)ccc1-n1c(=O)n(C)c2cnc3ccc(-c4cncc(C(C)(C)O)c4)cc3c21 [Example 7.8, 1-(6-Fluoro-2-methyl-pyridin-3-yl)-8-[5-(1-hydroxy-1-methyl-ethyl)-pyridin-3-yl]-3-methyl-1,3-dihydro-imidazo[4,5-c]quinolin-2-one]"
